Experimental data as given in patent publication US5304540A, “Pharmaceutical bacteriocin compositions and methods for using the same” (Applied Microbiology, Inc., priority 1993, dated 1994).
Read-outs that look alike come from different tables or passages of the source.

Tests used:
Escherichia coli = assay: Germicidal suspension assay, E. coli; type: cell-based; settings: for % survival at 1 min: 37° C.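 On all read-outs here: surviving cells were scored as colonies on nutrient agar after 24 h at 37° C, survival given as percent of untreated controls.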
Experimental: E. coli cells from an overnight Trypticase soy nutrient agar (TSA) were resuspended to a density measured as an absorbance of 1.0 at 600 nm in sterile ddH2 O. The reaction of the cells with each of the bactericidal test formulations analyzed was started by addition of 30 μl of cells to 970 μl of test formulation. The reaction mixture was incubated at 37° C for at least 1 minute and then centrifuged in a microfuge for 1 minute. The cell pellet was washed by resuspension in 1 ml of neutralization buffer. (The neutralization buffer: 50 mM Tris-HCl, pH 7.0, 5 mM MgSO4, 20 mM CaCl2, 0.1 M NaCl and 0.1% gelatin was prepared by first making Tris buffer and adjusting the pH. The salts and gelatin were then added and the solution stirred with heat until the solution was clear. The solution was then autoclaved for 20 min. The neutralization buffer was used without dilution.) The cells were centrifuged in a microfuge for 1 minute and resuspended in 1 ml of neutralization buffer. The viable count was determined by spreading 100 μl of bacterial suspension and serial dilutions thereof in neutralization buffer on nutrient agar and scoring surviving colonies after 24 h at 37° C. Percent survival relative to untreated controls was calculated from the scored values.

[1] = 0.1% w/v acetate pH 3.5, nisin 100 μg/ml and/or EDTA 1.0 mM where present, initial 2 × 10^7 cfu/ml
[2] = 0.1% w/v lactate pH 3.5, nisin 100 μg/ml and/or EDTA 1.0 mM where present, initial 5 × 10^7 cfu/ml
[3] = 0.1% w/v succinate pH 3.5, nisin 100 μg/ml and/or EDTA 1.0 mM where present, initial 3.4 × 10^6 cfu/ml
[4] = 0.3% w/v acetate pH 3.5, nisin 100 μg/ml and/or EDTA 1.0 mM where present, initial 2 × 10^7 cfu/ml
[5] = 0.3% w/v lactate pH 3.5, nisin 100 μg/ml and/or EDTA 1.0 mM where present, initial 5 × 10^7 cfu/ml
[6] = 0.3% w/v succinate pH 3.5, nisin 100 μg/ml and/or EDTA 1.0 mM where present, initial 3.4 × 10^6 cfu/ml
[7] = 1.0% w/v acetate pH 3.5, nisin 100 μg/ml and/or EDTA 1.0 mM where present, initial 2 × 10^7 cfu/ml
[8] = 1.0% w/v lactate pH 3.5, nisin 100 μg/ml and/or EDTA 1.0 mM where present, initial 5 × 10^7 cfu/ml
[9] = 1.0% w/v succinate pH 3.5, nisin 100 μg/ml and/or EDTA 1.0 mM where present, initial 3.4 × 10^6 cfu/ml
[10] = 3.0% w/v acetate pH 3.5, nisin 100 μg/ml and/or EDTA 1.0 mM where present, initial 2 × 10^7 cfu/ml
[11] = 3.0% w/v lactate pH 3.5, nisin 100 μg/ml and/or EDTA 1.0 mM where present, initial 5 × 10^7 cfu/ml
[12] = 3.0% w/v succinate pH 3.5, nisin 100 μg/ml and/or EDTA 1.0 mM where present, initial 3.4 × 10^6 cfu/ml

O=C(O)CC(O)(CC(=O)O)C(=O)O [Citrate]
% survival at 5 min (Helicobacter pylori; strain ATCC43504, 0.1% citrate adjusted to pH 2.5, nisin 100 μg/ml where present, 37° C.): 0.14%
% survival at 5 min (Helicobacter pylori; strain ATCC43504, 0.1% citrate adjusted to pH 3.0, nisin 100 μg/ml where present, 37° C.): < 0.004%
% survival at 5 min (Helicobacter pylori; strain ATCC43504, 0.1% citrate adjusted to pH 3.5, nisin 100 μg/ml where present, 37° C.): < 0.004%
% survival at 5 min (Helicobacter pylori; strain ATCC43504, 0.1% citrate adjusted to pH 4.0, nisin 100 μg/ml where present, 37° C.): 0.36%
% survival at 5 min (Helicobacter pylori; strain ATCC43504, 0.1% citrate adjusted to pH 5.0, nisin 100 μg/ml where present, 37° C.): 68.5%
% survival at 5 min (Helicobacter pylori; strain ATCC43504, 0.3% citrate adjusted to pH 2.5, nisin 100 μg/ml where present, 37° C.): 0.027%
% survival at 5 min (Helicobacter pylori; strain ATCC43504, 0.3% citrate adjusted to pH 3.0, nisin 100 μg/ml where present, 37° C.): < 0.027%
% survival at 5 min (Helicobacter pylori; strain ATCC43504, 0.3% citrate adjusted to pH 3.5, nisin 100 μg/ml where present, 37° C.): 29.7%
% survival at 5 min (Helicobacter pylori; strain ATCC43504, 0.3% citrate adjusted to pH 4.0, nisin 100 μg/ml where present, 37° C.): 17.6%
% survival at 5 min (Helicobacter pylori; strain ATCC43504, 0.3% citrate adjusted to pH 5.0, nisin 100 μg/ml where present, 37° C.): 100%
% survival at 5 min (Helicobacter pylori; strain ATCC43504, pH 5.0, citrate 0.1% w/v, nisin 100 μg/ml where present, first of two experiments (initial 1.40 × 10^5 cfu/ml)): 83.6%
% survival at 5 min (Helicobacter pylori; strain ATCC43504, pH 5.0, citrate 0.1% w/v, nisin 100 μg/ml where present, second of two experiments (initial 3.26 × 10^5 cfu/ml)): 25.8%
% survival at 5 min (Helicobacter pylori; strain ATCC43504, pH 5.0, citrate 0.3% w/v, nisin 100 μg/ml where present, first of two experiments (initial 1.40 × 10^5 cfu/ml)): 42.9%
% survival at 5 min (Helicobacter pylori; strain ATCC43504, pH 5.0, citrate 0.3% w/v, nisin 100 μg/ml where present, second of two experiments (initial 3.26 × 10^5 cfu/ml)): 4.39%
% survival at 5 min (Helicobacter pylori; strain ATCC43504, pH 5.0, citrate 1.0% w/v, nisin 100 μg/ml where present, first of two experiments (initial 1.40 × 10^5 cfu/ml)): 22.1%
% survival at 5 min (Helicobacter pylori; strain ATCC43504, pH 5.0, citrate 1.0% w/v, nisin 100 μg/ml where present, second of two experiments (initial 3.26 × 10^5 cfu/ml)): 50.9%
% survival at 5 min (Helicobacter pylori; strain ATCC43504, pH 7.0, citrate 0.1% w/v, nisin 100 μg/ml where present, initial 9.62 × 10^4 cfu/ml): 17.7%
% survival at 5 min (Helicobacter pylori; strain ATCC43504, pH 7.0, citrate 0.3% w/v, nisin 100 μg/ml where present, initial 9.62 × 10^4 cfu/ml): 8.94%
% survival at 5 min (Helicobacter pylori; strain ATCC43504, pH 7.0, citrate 1.0% w/v, nisin 100 μg/ml where present, initial 9.62 × 10^4 cfu/ml): 0.82%
% survival at 5 min (Helicobacter pylori; strain ATCC43579, 0.1% citrate adjusted to pH 2.5, nisin 100 μg/ml where present, 37° C.): < 5.0 × 10^-4%
% survival at 5 min (Helicobacter pylori; strain ATCC43579, 0.1% citrate adjusted to pH 3.0, nisin 100 μg/ml where present, 37° C.): 1.1 × 10^-3%
% survival at 5 min (Helicobacter pylori; strain ATCC43579, 0.1% citrate adjusted to pH 3.5, nisin 100 μg/ml where present, 37° C.): 0.18%
% survival at 5 min (Helicobacter pylori; strain ATCC43579, 0.1% citrate adjusted to pH 4.0, nisin 100 μg/ml where present, 37° C.): 9.56%
% survival at 5 min (Helicobacter pylori; strain ATCC43579, 0.1% citrate adjusted to pH 5.0, nisin 100 μg/ml where present, 37° C.): 97.2%
% survival at 5 min (Helicobacter pylori; strain ATCC43579, pH 5.0, 0.1% citrate, nisin 0, 37° C., initial 3.19 × 10^7 cfu/ml): 86.2%
% survival at 5 min (Helicobacter pylori; strain ATCC43579, pH 5.0, citrate 0.1% w/v, nisin 100 μg/ml where present, initial 1.04 × 10^4 cfu/ml): 100%
% survival at 5 min (Helicobacter pylori; strain ATCC43579, pH 5.0, citrate 0.3% w/v, nisin 100 μg/ml where present, initial 1.04 × 10^4 cfu/ml): 100%
% survival at 5 min (Helicobacter pylori; strain ATCC43579, pH 5.0, citrate 1.0% w/v, nisin 100 μg/ml where present, initial 1.04 × 10^4 cfu/ml): 100%
% survival at 5 min (Helicobacter pylori; strain ATCC43579, pH 7.0, citrate 0.1% w/v, nisin 100 μg/ml where present): 12.1%
% survival at 5 min (Helicobacter pylori; strain ATCC43579, pH 7.0, citrate 0.3% w/v, nisin 100 μg/ml where present): 0.26%
% survival at 5 min (Helicobacter pylori; strain ATCC43579, pH 7.0, citrate 1.0% w/v, nisin 100 μg/ml where present): 0.02%
% survival at 1 min (Escherichia coli; 0.1% w/v citrate pH 3.5, nisin 100 μg/ml and/or EDTA 1.0 mM where present, initial 5 × 10^7 cfu/ml): 100%
% survival at 1 min (Escherichia coli; 0.3% w/v citrate pH 3.5, nisin 100 μg/ml and/or EDTA 1.0 mM where present, initial 5 × 10^7 cfu/ml): 56.3%
% survival at 1 min (Escherichia coli; 1.0% w/v citrate pH 3.5, nisin 100 μg/ml and/or EDTA 1.0 mM where present, initial 5 × 10^7 cfu/ml): 72.9%
% survival at 1 min (Escherichia coli; 3.0% w/v citrate pH 3.5, nisin 100 μg/ml and/or EDTA 1.0 mM where present, initial 5 × 10^7 cfu/ml): 100%
survival of E. coli on exposure to the agent by itself (Escherichia coli): unaffected

O=C(O)CN(CCN(CC(=O)O)CC(=O)O)CC(=O)O [EDTA]
% survival at 5 min (Helicobacter pylori; strain ATCC43504, EDTA 1.0 mM, nisin 100 μg/ml where present, pH 2.5, first of two experiments (initial 8.6 × 10^4 cfu/ml)): 0.023%
% survival at 5 min (Helicobacter pylori; strain ATCC43504, EDTA 1.0 mM, nisin 100 μg/ml where present, pH 2.5, second of two experiments (initial 9.82 × 10^5 cfu/ml)): 0.013%
% survival at 5 min (Helicobacter pylori; strain ATCC43504, EDTA 1.0 mM, nisin 100 μg/ml where present, pH 3.0, first of two experiments (initial 8.6 × 10^4 cfu/ml)): < 0.021%
% survival at 5 min (Helicobacter pylori; strain ATCC43504, EDTA 1.0 mM, nisin 100 μg/ml where present, pH 3.0, second of two experiments (initial 9.82 × 10^5 cfu/ml)): < 0.001%
% survival at 5 min (Helicobacter pylori; strain ATCC43504, EDTA 1.0 mM, nisin 100 μg/ml where present, pH 3.5, first of two experiments (initial 8.6 × 10^4 cfu/ml)): 94.2%
% survival at 5 min (Helicobacter pylori; strain ATCC43504, EDTA 1.0 mM, nisin 100 μg/ml where present, pH 3.5, second of two experiments (initial 9.82 × 10^5 cfu/ml)): 0.015%
% survival at 5 min (Helicobacter pylori; strain ATCC43504, EDTA 1.0 mM, nisin 100 μg/ml where present, pH 4.0, first of two experiments (initial 8.6 × 10^4 cfu/ml)): 11.6%
% survival at 5 min (Helicobacter pylori; strain ATCC43504, EDTA 1.0 mM, nisin 100 μg/ml where present, pH 4.0, second of two experiments (initial 9.82 × 10^5 cfu/ml)): 16.5%
% survival at 5 min (Helicobacter pylori; strain ATCC43504, EDTA 1.0 mM, nisin 100 μg/ml where present, pH 5.0, first of two experiments (initial 8.6 × 10^4 cfu/ml)): 10.0%
% survival at 5 min (Helicobacter pylori; strain ATCC43504, EDTA 1.0 mM, nisin 100 μg/ml where present, pH 5.0, second of two experiments (initial 9.82 × 10^5 cfu/ml)): 100%
% survival at 5 min (Helicobacter pylori; strain ATCC43526, pH 7.0, EDTA 1.0 mM, nisin 100 μg/ml where present, initial 3.40 × 10^4 cfu/ml): 94.1%
% survival at 5 min (Helicobacter pylori; strain ATCC43526, pH 7.0, EDTA 10 mM, nisin 100 μg/ml where present, initial 3.40 × 10^4 cfu/ml): 21.0%
% survival at 5 min (Helicobacter pylori; strain ATCC43526, pH 7.0, EDTA 100 mM, nisin 100 μg/ml where present, initial 3.40 × 10^4 cfu/ml): 1.62%
% survival at 5 min (Helicobacter pylori; strain ATCC43579, pH 5.0, EDTA 1.0 mM, nisin 100 μg/ml where present, initial 2.04 × 10^5 cfu/ml): 13.63%
% survival at 5 min (Helicobacter pylori; strain ATCC43579, pH 5.0, EDTA 10 mM, nisin 100 μg/ml where present, initial 2.04 × 10^5 cfu/ml): 8.82%
% survival at 5 min (Helicobacter pylori; strain ATCC43579, pH 5.0, EDTA 100 mM, nisin 100 μg/ml where present, initial 2.04 × 10^5 cfu/ml): 0.43%
% survival at 1 min (Escherichia coli; [1]): 40%
% survival at 1 min (Escherichia coli; [2]): 5.1%
% survival at 1 min (Escherichia coli; [3]): 56.8%
% survival at 1 min (Escherichia coli; [4]): 25%
% survival at 1 min (Escherichia coli; [5]): 0.46%
% survival at 1 min (Escherichia coli; [6]): 63.6%
% survival at 1 min (Escherichia coli; [7]): 25%
% survival at 1 min (Escherichia coli; [8]): 0.91%
% survival at 1 min (Escherichia coli; [9]): 46.2%
% survival at 1 min (Escherichia coli; [10]): 10.7%
% survival at 1 min (Escherichia coli; [11]): 1.58%
% survival at 1 min (Escherichia coli; [12]): 43.2%
survival of E. coli on exposure to the agent by itself (Escherichia coli): unaffected
% survival at 1 min (Escherichia coli; pH 2.0, 20 mM Na acetate buffer, nisin 100 μg/ml and/or EDTA 1.0 mM, initial 4 × 10^7 cfu/ml): 0.07%
% survival at 1 min (Escherichia coli; pH 3.0, 20 mM Na acetate buffer, nisin 100 μg/ml and/or EDTA 1.0 mM, initial 4 × 10^7 cfu/ml): 5.41%

O=C(O)CCC(=O)O [Succinate, succinate]
% survival at 1 min (Escherichia coli; [3]): 85.5%
% survival at 1 min (Escherichia coli; [6]): 29.9%
% survival at 1 min (Escherichia coli; [9]): 36.7%
% survival at 1 min (Escherichia coli; [12]): 13.9%

CC(O)C(=O)O (stereo not shown) [Lactate, lactate]
% survival at 1 min (Escherichia coli; [2]): 22.2%
% survival at 1 min (Escherichia coli; [5]): 46.7%
% survival at 1 min (Escherichia coli; [8]): 35.6%
% survival at 1 min (Escherichia coli; [11]): 4.2%

CC(=O)O [Acetate]
% survival at 1 min (Escherichia coli; [1]): 55%
% survival at 1 min (Escherichia coli; [4]): 80%
% survival at 1 min (Escherichia coli; [7]): 90%
% survival at 1 min (Escherichia coli; [10]): 10.1%
